Earlier results on 1 compound are cited in patent publication US6641611B2, “Therapeutic coating for an intravascular implant” (priority 2001, dated 2003).

Read-outs that look alike come from different tables or passages of the source.

For series [1] the following is noted: for diabetes: high doses.

With `CO[C@H]1C[C@@H]2CC[C@@H](C)[C@@](O)(O2)C(=O)C(=O)N2CCCC[C@H]2C(=O)O[C@H]([C@H](C)C[C@@H]2CC[C@@H](O)[C@H](OC)C2)CC(=O)[C@H](C)/C=C(\C)[C@@H](O)[C@@H](OC)C(=O)[C@H](C)C[C@H](C)/C=C/C=C/C=C/1C` [rapamycin], the diabetes entry was “not” in series [1] (nonhuman primates) and “causes diabetes” in series [1] (rats). In addition, in series [1] (several species), the body weight effect entry is recorded as “weight loss”. Also, the tolerability result (fixed high dose monotherapy) is given as “well tolerated”. Moreover, for the setting “monkeys, fixed doses of both drugs in combination”, the “increase in rapamycin levels in combination compared to rapamycin alone” value is 5 fold.
